# Data from article PMC3968014, “Design and Synthesis of a Library of Lead-Like 2,4-Bisheterocyclic Substituted Thiophenes as Selective Dyrk/Clk Inhibitors” (PLoS ONE, 2014).
# How the values were obtained:
# [1] = tested on: U2OS osteosarcoma cells; experiment: ROS Assay (dihydroethidium); format: cell-based; settings: 48 hours
# Experimental: U2OS osteosarcoma cells were plated on six well cell culture plates (5*10^5 cells/well). […]. Cells were washed with phosphate–buffered saline (PBS) and incubated for 30 min at 37°C in the dark with 10 µM dihydroethidium (DHE) in PBS and washed with PBS. The cells were then trypsinized, collected by centrifugation, and lysed with lysis buffer (100 mM Tris/HCl, pH 7.3, 2 mM EGTA, 2% Triton X100). The amount of ethidium produced by reactive oxygen species (ROS) was quantified by measuring the fluorescence (Ex485, Em620) in a POLARstar plate reader (BMG Labtech, Offenburg, Germany). Values obtained for different compound concentrations were compared using the two-sided Student's t-test; levels of significance thus obtained are indicated by asterisks.
# [2] = molecular target: T1, CDK1/cyclin B (Homo sapiens, UniProt P06493); experiment: Selectivity panel CDK1/cyclin B; format: biochemical; settings: 5 µM inhibitor
# T1 construct: purchased Life Technologies (Invitrogen SelectScreen); Dyrk1A, Dyrk2 and CK2α in-house or gifts
# T1 sequence (P06493 whole entry): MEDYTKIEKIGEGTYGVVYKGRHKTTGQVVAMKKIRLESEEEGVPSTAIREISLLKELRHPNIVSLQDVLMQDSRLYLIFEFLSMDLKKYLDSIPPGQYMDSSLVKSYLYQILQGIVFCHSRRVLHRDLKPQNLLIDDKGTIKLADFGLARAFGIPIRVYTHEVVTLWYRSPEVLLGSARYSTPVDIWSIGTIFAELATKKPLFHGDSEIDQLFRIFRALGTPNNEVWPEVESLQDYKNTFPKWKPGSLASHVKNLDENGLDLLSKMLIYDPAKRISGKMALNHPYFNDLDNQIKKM
# T1 sequence (P14635 whole entry partner): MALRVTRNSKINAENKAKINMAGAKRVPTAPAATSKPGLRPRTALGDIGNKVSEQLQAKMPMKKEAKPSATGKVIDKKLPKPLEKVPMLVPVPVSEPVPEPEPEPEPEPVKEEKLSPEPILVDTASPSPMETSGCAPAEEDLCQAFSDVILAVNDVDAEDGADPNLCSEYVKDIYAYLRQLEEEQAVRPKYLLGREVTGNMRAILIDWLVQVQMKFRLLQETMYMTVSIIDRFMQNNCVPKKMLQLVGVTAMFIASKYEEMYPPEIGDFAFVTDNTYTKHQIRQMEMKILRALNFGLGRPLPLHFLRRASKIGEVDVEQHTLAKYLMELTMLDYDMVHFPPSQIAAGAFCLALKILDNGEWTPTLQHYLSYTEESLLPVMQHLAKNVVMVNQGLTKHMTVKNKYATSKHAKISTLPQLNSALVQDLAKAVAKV
# [3] = molecular target: T2, CDK2/cyclin A (Homo sapiens, UniProt P24941); experiment: Selectivity panel CDK2/cyclin A; format: biochemical; settings: 5 µM inhibitor
# T2 construct: purchased Life Technologies (Invitrogen SelectScreen); Dyrk1A, Dyrk2 and CK2α in-house or gifts
# [4] = molecular target: T3, MAPK1 (ERK2) (Homo sapiens, UniProt P28482); experiment: Selectivity panel MAPK1; format: biochemical; settings: 5 µM inhibitor
# T3 construct: purchased Life Technologies (Invitrogen SelectScreen); Dyrk1A, Dyrk2 and CK2α in-house or gifts
# T3 sequence (P28482 whole entry): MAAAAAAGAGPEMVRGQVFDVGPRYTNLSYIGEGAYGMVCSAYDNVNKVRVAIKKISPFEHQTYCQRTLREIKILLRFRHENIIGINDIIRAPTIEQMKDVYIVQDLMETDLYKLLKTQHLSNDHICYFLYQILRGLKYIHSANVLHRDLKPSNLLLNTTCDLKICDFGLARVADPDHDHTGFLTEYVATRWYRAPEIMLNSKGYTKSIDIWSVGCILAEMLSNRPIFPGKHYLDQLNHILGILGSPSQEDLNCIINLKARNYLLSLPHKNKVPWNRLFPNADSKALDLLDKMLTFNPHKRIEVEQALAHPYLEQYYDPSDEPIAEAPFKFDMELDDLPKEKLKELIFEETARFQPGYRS
# [5] = molecular target: T4, MAPK10 (JNK3) (Homo sapiens, UniProt P53779); experiment: Selectivity panel MAPK10; format: biochemical; settings: 5 µM inhibitor
# T4 construct: purchased Life Technologies (Invitrogen SelectScreen); Dyrk1A, Dyrk2 and CK2α in-house or gifts
# [6] = molecular target: T5, MAPK8 (JNK1) (Homo sapiens, UniProt P45983); experiment: Selectivity panel MAPK8; format: biochemical; settings: 5 µM inhibitor
# T5 construct: purchased Life Technologies (Invitrogen SelectScreen); Dyrk1A, Dyrk2 and CK2α in-house or gifts
# [7] = molecular target: T6, MAP2K6 (MKK6) (Homo sapiens, UniProt P52564); experiment: Selectivity panel MAP2K6; format: biochemical; settings: 5 µM inhibitor
# T6 construct: purchased Life Technologies (Invitrogen SelectScreen); Dyrk1A, Dyrk2 and CK2α in-house or gifts
# [8] = molecular target: T7, PAK4 (Homo sapiens, UniProt O96013); experiment: Selectivity panel PAK4; format: biochemical; settings: 5 µM inhibitor
# T7 construct: purchased Life Technologies (Invitrogen SelectScreen); Dyrk1A, Dyrk2 and CK2α in-house or gifts
# T7 sequence (O96013 whole entry): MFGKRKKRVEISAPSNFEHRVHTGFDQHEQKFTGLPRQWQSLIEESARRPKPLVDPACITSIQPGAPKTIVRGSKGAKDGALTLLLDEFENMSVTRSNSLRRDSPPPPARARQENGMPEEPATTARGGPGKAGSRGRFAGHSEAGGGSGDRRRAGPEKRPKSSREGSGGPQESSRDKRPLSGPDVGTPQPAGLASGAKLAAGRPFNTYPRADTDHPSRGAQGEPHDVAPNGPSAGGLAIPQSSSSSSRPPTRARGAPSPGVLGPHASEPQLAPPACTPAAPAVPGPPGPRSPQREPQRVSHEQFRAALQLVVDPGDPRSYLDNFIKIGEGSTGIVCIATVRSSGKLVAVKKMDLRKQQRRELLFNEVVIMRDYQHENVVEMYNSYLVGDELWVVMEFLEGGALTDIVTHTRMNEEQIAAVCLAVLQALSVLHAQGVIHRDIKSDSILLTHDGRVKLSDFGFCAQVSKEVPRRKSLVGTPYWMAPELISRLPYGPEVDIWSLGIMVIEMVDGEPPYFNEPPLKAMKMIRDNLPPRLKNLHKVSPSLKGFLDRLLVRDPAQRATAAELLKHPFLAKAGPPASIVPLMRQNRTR
# [9] = molecular target: T8, (Homo sapiens, UniProt Q9UEW8); experiment: Selectivity panel PASK (STLK3); format: biochemical; settings: 5 µM inhibitor; listed under STE
# T8 construct: purchased Life Technologies (Invitrogen SelectScreen); Dyrk1A, Dyrk2 and CK2α in-house or gifts
# [10] = molecular target: T9, ROCK2 (Homo sapiens, UniProt O75116); experiment: Selectivity panel ROCK2; format: biochemical; settings: 5 µM inhibitor
# T9 construct: purchased Life Technologies (Invitrogen SelectScreen); Dyrk1A, Dyrk2 and CK2α in-house or gifts
# [11] = molecular target: T10, SGK (SGK1) (Homo sapiens, UniProt O00141); experiment: Selectivity panel SGK; format: biochemical; settings: 5 µM inhibitor
# T10 construct: purchased Life Technologies (Invitrogen SelectScreen); Dyrk1A, Dyrk2 and CK2α in-house or gifts
# [12] = molecular target: T11, PRKCE (PKC epsilon) (Homo sapiens, UniProt Q02156); experiment: Selectivity panel PRKCE; format: biochemical; settings: 5 µM inhibitor
# T11 construct: purchased Life Technologies (Invitrogen SelectScreen); Dyrk1A, Dyrk2 and CK2α in-house or gifts
# [13] = molecular target: T12, PKN1 (PRK1) (Homo sapiens, UniProt Q16512); experiment: Selectivity panel PKN1; format: biochemical; settings: 5 µM inhibitor
# T12 construct: purchased Life Technologies (Invitrogen SelectScreen); Dyrk1A, Dyrk2 and CK2α in-house or gifts
# T12 sequence (Q16512 whole entry): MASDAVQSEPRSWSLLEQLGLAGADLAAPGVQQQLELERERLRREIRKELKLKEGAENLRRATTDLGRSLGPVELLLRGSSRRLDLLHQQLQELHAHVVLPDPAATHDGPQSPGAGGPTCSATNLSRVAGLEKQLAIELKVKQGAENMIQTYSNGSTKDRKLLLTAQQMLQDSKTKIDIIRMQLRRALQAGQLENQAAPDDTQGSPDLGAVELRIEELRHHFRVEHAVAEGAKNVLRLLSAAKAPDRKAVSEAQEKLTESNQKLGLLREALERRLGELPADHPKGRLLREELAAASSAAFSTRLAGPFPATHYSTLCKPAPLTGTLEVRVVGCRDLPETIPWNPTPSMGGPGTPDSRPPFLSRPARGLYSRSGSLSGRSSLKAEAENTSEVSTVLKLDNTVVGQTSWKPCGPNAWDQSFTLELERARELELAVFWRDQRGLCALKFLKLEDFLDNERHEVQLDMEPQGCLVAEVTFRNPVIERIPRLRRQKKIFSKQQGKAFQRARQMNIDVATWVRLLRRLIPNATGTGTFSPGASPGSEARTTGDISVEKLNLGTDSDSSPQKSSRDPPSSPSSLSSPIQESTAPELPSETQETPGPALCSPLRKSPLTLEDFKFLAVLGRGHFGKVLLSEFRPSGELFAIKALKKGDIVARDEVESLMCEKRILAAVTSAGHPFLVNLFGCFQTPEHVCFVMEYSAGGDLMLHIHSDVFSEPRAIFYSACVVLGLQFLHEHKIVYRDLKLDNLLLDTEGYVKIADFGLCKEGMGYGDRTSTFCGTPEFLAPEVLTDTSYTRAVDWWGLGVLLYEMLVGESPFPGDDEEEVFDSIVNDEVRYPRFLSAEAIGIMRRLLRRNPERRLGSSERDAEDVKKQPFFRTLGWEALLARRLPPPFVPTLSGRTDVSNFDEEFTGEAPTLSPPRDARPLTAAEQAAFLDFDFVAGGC
# [14] = molecular target: T13, PIM2 (Homo sapiens, UniProt Q9P1W9); experiment: Selectivity panel PIM2; format: biochemical; settings: 5 µM inhibitor
# T13 construct: purchased Life Technologies (Invitrogen SelectScreen); Dyrk1A, Dyrk2 and CK2α in-house or gifts
# [15] = molecular target: T14, MAPKAPK2 (Homo sapiens, UniProt P49137); experiment: Selectivity panel MAPKAPK2; format: biochemical; settings: 5 µM inhibitor
# T14 construct: purchased Life Technologies (Invitrogen SelectScreen); Dyrk1A, Dyrk2 and CK2α in-house or gifts
# [16] = molecular target: T15, CHEK1 (CHK1) (Homo sapiens, UniProt O14757); experiment: Selectivity panel CHEK1; format: biochemical; settings: 5 µM inhibitor
# T15 construct: purchased Life Technologies (Invitrogen SelectScreen); Dyrk1A, Dyrk2 and CK2α in-house or gifts
# [17] = molecular target: T16, CHEK2 (CHK2) (Homo sapiens, UniProt O96017); experiment: Selectivity panel CHEK2; format: biochemical; settings: 5 µM inhibitor
# T16 construct: purchased Life Technologies (Invitrogen SelectScreen); Dyrk1A, Dyrk2 and CK2α in-house or gifts
# [18] = molecular target: T17, AMPK A1/B1/G1 (Homo sapiens, UniProt Q13131); experiment: Selectivity panel AMPK; format: biochemical; settings: 5 µM inhibitor
# T17 construct: purchased Life Technologies (Invitrogen SelectScreen); Dyrk1A, Dyrk2 and CK2α in-house or gifts
# [19] = molecular target: T18, MYLK2 (skMLCK) (Homo sapiens, UniProt Q9H1R3); experiment: Selectivity panel MYLK2; format: biochemical; settings: 5 µM inhibitor
# T18 construct: purchased Life Technologies (Invitrogen SelectScreen); Dyrk1A, Dyrk2 and CK2α in-house or gifts
# [20] = molecular target: T19, NEK1 (Homo sapiens, UniProt Q96PY6); experiment: Selectivity panel NEK1; format: biochemical; settings: 5 µM inhibitor
# T19 construct: purchased Life Technologies (Invitrogen SelectScreen); Dyrk1A, Dyrk2 and CK2α in-house or gifts
# T19 sequence (Q96PY6 whole entry): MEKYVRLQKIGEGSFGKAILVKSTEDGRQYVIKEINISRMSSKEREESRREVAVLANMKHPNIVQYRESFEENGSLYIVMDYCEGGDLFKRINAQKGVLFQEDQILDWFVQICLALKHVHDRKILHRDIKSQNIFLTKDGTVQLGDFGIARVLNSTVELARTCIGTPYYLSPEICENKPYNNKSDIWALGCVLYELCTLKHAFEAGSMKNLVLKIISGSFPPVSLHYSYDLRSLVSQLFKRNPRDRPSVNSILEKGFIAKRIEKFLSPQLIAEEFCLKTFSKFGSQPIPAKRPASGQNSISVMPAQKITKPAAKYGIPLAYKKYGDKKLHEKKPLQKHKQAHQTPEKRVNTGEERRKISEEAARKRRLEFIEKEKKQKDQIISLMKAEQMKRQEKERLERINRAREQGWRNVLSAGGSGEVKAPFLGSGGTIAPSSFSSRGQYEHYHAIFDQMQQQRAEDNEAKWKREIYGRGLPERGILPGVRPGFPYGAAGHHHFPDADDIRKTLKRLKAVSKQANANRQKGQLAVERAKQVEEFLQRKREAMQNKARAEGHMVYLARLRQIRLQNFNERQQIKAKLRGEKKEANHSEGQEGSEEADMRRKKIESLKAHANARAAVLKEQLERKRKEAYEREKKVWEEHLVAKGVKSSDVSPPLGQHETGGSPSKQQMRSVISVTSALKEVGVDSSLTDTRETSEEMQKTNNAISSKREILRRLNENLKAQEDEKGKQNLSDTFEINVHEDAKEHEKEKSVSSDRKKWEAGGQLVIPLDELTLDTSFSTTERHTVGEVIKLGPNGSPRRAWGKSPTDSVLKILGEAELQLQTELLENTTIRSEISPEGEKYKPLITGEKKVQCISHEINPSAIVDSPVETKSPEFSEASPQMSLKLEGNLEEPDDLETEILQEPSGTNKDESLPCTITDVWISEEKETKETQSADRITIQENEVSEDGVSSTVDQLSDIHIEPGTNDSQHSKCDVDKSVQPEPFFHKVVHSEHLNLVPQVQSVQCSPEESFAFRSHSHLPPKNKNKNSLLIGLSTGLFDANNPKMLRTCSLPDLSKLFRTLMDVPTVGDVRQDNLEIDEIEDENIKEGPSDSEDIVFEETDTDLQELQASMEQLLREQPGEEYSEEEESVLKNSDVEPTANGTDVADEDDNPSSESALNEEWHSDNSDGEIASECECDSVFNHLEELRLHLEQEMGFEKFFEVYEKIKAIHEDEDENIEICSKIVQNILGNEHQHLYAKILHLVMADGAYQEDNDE
# [21] = molecular target: T20, CSNK1G1 (CK1 gamma 1) (Homo sapiens, UniProt Q9HCP0); experiment: Selectivity panel CSNK1G1; format: biochemical; settings: 5 µM inhibitor
# T20 construct: purchased Life Technologies (Invitrogen SelectScreen); Dyrk1A, Dyrk2 and CK2α in-house or gifts
# [22] = molecular target: T21, ACVR1 (ALK2) (Homo sapiens, UniProt Q04771); experiment: Selectivity panel ACVR1; format: biochemical; settings: 5 µM inhibitor
# T21 construct: purchased Life Technologies (Invitrogen SelectScreen); Dyrk1A, Dyrk2 and CK2α in-house or gifts
# [23] = molecular target: T22, TGFBR1 (ALK5) (Homo sapiens, UniProt P36897); experiment: Selectivity panel TGFBR1; format: biochemical; settings: 5 µM inhibitor
# T22 construct: purchased Life Technologies (Invitrogen SelectScreen); Dyrk1A, Dyrk2 and CK2α in-house or gifts
# [24] = molecular target: T23, RIPK2 (Homo sapiens, UniProt O43353); experiment: Selectivity panel RIPK2; format: biochemical; settings: 5 µM inhibitor
# T23 construct: purchased Life Technologies (Invitrogen SelectScreen); Dyrk1A, Dyrk2 and CK2α in-house or gifts
# [25] = molecular target: T24, KDR (VEGFR2) (Homo sapiens, UniProt P35968); experiment: Selectivity panel KDR; format: biochemical; settings: 5 µM inhibitor
# T24 construct: purchased Life Technologies (Invitrogen SelectScreen); Dyrk1A, Dyrk2 and CK2α in-house or gifts
# [26] = molecular target: T25, RET (Homo sapiens, UniProt P07949); experiment: Selectivity panel RET; format: biochemical; settings: 5 µM inhibitor
# T25 construct: purchased Life Technologies (Invitrogen SelectScreen); Dyrk1A, Dyrk2 and CK2α in-house or gifts
# [27] = molecular target: T26, FYN (Homo sapiens, UniProt P06241); experiment: Selectivity panel FYN; format: biochemical; settings: 5 µM inhibitor
# T26 construct: purchased Life Technologies (Invitrogen SelectScreen); Dyrk1A, Dyrk2 and CK2α in-house or gifts
# [28] = molecular target: T27, AXL (Homo sapiens, UniProt P30530); experiment: Selectivity panel AXL; format: biochemical; settings: 5 µM inhibitor
# T27 construct: purchased Life Technologies (Invitrogen SelectScreen); Dyrk1A, Dyrk2 and CK2α in-house or gifts
# [29] = molecular target: T28, EPHA5 (Homo sapiens, UniProt P54756); experiment: Selectivity panel EPHA5; format: biochemical; settings: 5 µM inhibitor
# T28 construct: purchased Life Technologies (Invitrogen SelectScreen); Dyrk1A, Dyrk2 and CK2α in-house or gifts
# [30] = molecular target: T29, FGFR3 (Homo sapiens, UniProt P22607); experiment: Selectivity panel FGFR3; format: biochemical; settings: 5 µM inhibitor
# T29 construct: purchased Life Technologies (Invitrogen SelectScreen); Dyrk1A, Dyrk2 and CK2α in-house or gifts
# [31] = molecular target: T30, MET (cMet) (Homo sapiens, UniProt P08581); experiment: Selectivity panel MET; format: biochemical; settings: 5 µM inhibitor
# T30 construct: purchased Life Technologies (Invitrogen SelectScreen); Dyrk1A, Dyrk2 and CK2α in-house or gifts
# [32] = molecular target: T31, ZAP70 (Homo sapiens, UniProt P43403); experiment: Selectivity panel ZAP70; format: biochemical; settings: 5 µM inhibitor
# T31 construct: purchased Life Technologies (Invitrogen SelectScreen); Dyrk1A, Dyrk2 and CK2α in-house or gifts
# [33] = molecular target: T32, TEK (Tie2) (Homo sapiens, UniProt Q02763); experiment: Selectivity panel TEK; format: biochemical; settings: 5 µM inhibitor
# T32 construct: purchased Life Technologies (Invitrogen SelectScreen); Dyrk1A, Dyrk2 and CK2α in-house or gifts
# T32 sequence (Q02763 23-1124): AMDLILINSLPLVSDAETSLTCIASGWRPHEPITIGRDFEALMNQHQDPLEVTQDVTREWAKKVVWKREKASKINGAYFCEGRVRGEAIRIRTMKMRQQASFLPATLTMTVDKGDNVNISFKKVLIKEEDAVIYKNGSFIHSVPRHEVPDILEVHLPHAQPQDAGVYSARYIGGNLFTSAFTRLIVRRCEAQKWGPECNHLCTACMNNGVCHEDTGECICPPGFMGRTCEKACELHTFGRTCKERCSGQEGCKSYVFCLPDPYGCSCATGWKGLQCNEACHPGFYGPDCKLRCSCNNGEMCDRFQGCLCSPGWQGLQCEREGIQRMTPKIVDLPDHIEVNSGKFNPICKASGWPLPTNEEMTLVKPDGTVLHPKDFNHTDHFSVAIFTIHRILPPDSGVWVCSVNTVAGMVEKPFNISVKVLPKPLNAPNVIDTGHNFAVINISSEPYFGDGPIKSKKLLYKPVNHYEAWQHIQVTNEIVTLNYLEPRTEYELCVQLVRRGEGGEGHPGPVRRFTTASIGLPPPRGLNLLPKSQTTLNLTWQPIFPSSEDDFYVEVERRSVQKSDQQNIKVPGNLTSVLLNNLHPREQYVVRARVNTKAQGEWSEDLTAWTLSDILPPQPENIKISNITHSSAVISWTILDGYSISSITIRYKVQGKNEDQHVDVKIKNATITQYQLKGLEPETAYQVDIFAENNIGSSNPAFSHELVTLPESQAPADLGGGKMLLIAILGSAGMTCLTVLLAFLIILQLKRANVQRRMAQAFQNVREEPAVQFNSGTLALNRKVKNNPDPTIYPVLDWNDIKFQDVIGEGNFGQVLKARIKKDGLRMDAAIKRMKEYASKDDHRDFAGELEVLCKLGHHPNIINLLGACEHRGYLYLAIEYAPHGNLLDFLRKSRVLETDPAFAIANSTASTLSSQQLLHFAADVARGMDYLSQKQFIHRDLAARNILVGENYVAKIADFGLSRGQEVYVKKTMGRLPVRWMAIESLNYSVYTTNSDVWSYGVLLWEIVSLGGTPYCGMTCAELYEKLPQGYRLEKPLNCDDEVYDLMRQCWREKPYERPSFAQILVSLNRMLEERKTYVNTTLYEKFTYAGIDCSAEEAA
# [34] = molecular target: T33, PTK6 (Brk) (Homo sapiens, UniProt Q13882); experiment: Selectivity panel PTK6; format: biochemical; settings: 5 µM inhibitor
# T33 construct: purchased Life Technologies (Invitrogen SelectScreen); Dyrk1A, Dyrk2 and CK2α in-house or gifts
SMILES,inhibition at 5 µM [2],inhibition at 5 µM [3],inhibition at 5 µM [4],inhibition at 5 µM [5],inhibition at 5 µM [6],inhibition at 5 µM [7],inhibition at 5 µM [8],inhibition at 5 µM [9],inhibition at 5 µM [10],inhibition at 5 µM [11],inhibition at 5 µM [12],inhibition at 5 µM [13],inhibition at 5 µM [14],inhibition at 5 µM [15],inhibition at 5 µM [16],inhibition at 5 µM [17],inhibition at 5 µM [18],inhibition at 5 µM [19],inhibition at 5 µM [20],inhibition at 5 µM [21],other results
"c1cncc(-c2cc(-c3cncs3)cs2)c1 [Compound 29, 3-[4-(1,3-thiazol-5-yl)thiophen-2-yl]pyridine]",29%,22%,-6%,4%,-1%,5%,3%,23%,6%,20%,-18%,-16%,7%,2%,3%,1%,-9%,12%,3%,-5%,concentration at which enhancement of reporter dye fluorescence (ROS) starts [1]: 0.2 µM; inhibition at 5 µM [22]: 51%; inhibition at 5 µM [23]: 24%; inhibition at 5 µM [24]: 53%; inhibition at 5 µM [25]: 6%; inhibition at 5 µM [26]: -1%; inhibition at 5 µM [27]: -2%; inhibition at 5 µM [28]: -2%; inhibition at 5 µM [29]: -9%; inhibition at 5 µM [30]: -2%; inhibition at 5 µM [31]: 1%; inhibition at 5 µM [32]: 4%; inhibition at 5 µM [33]: -1%; inhibition at 5 µM [34]: 30%
"c1cncc(-c2csc(-c3cncs3)c2)c1 [Compound 48, 3-[5-(1,3-thiazol-5-yl)thiophen-3-yl]pyridine]",42%,33%,1%,2%,5%,7%,4%,27%,9%,22%,-5%,-10%,5%,2%,7%,-2%,-5%,31%,-5%,-3%,inhibition at 5 µM [22]: 51%; inhibition at 5 µM [23]: 22%; inhibition at 5 µM [24]: 46%; inhibition at 5 µM [25]: 10%; inhibition at 5 µM [26]: 1%; inhibition at 5 µM [27]: 0%; inhibition at 5 µM [28]: -11%; inhibition at 5 µM [29]: -6%; inhibition at 5 µM [30]: -1%; inhibition at 5 µM [31]: -12%; inhibition at 5 µM [32]: -1%; inhibition at 5 µM [33]: 0%; inhibition at 5 µM [34]: 34%
